Columns and labels:
Hepatocytes [1] = test: Hepatocytes predicted clearance, cyno
Hepatocytes [2] = test: Hepatocytes predicted clearance, human
TRPA1 channels = target: T1, TRPA1 channels (Homo sapiens, UniProt O75762); test: TRP Family FLIPR Assay, TRPA1; type: cell-based; settings: CHO cells
T1 construct: expressed in transfected cells; host or cells: CHO
Description: (§1) The compound of Example 5 was tested for selectivity against a panel of Human TRP family ion channels in a TRP Family FLIPR Assay as described below. • 1. TRPC3 channels (human TRPC3 variant 1 gene, expressed in HEK293 cells). • 2. TRPC4 channels (human TRPC4 gene, expressed in HEK293 cells). • 3. TRPC5 channels (human TRPC5 gene, expressed in HEK293 cells). • 4. TRPC6 channels (human TRPC6 gene, expressed in HEK293 cells). • 5. TRPM2 channels (human TRPM2 gene, transiently expressed in HEK293 cells). • 6. TRPM3 channels (human TRPM3 gene, transiently expressed in HEK293 cells). • 7. TRPM4 channels (human TRPM4 gene, expressed in CHO cells). • 8. […]
(§2) Data acquisition was performed via the FLIPR Control software supplied with the FLIPR System (MDS-AT) and data was analyzed using Microsoft Excel (Microsoft Corp., Redmond, WA) or GraphPad Prism. […]
(§3) [formula] where Base is the response at low concentrations of test article, Max is the maximum response at high concentrations, xhalf the EC50, or IC50, the concentration of test article producing either half-maximal activation or inhibition, and rate is the Hill coefficient. […] No assumptions about the fit parameters was made; the fit parameters were determined by the algorithm.
(§4) The effect of each test article was evaluated at eight (8) concentrations: 0.003, 0.01, 0.03, 0.1, 0.3, 1, 3 and 10 μM, n≤4 wells/concentration). […]

TRPM2 channels = target: T2, TRPM2 channels (Homo sapiens, UniProt O94759); test: TRP Family FLIPR Assay, TRPM2; type: cell-based; settings: HEK293 cells (transient)
T2 construct: expressed in transfected cells; host or cells: HEK293 (transient)
Description: as §1, §2, §3, §4

TRPM3 channels = target: T3, TRPM3 channels (Homo sapiens, UniProt Q9HCF6); test: TRP Family FLIPR Assay, TRPM3; type: cell-based; settings: HEK293 cells (transient)
T3 construct: expressed in transfected cells; host or cells: HEK293 (transient)
Description: as §1, §2, §3, §4

T3 sequence (Q9HCF6 whole entry): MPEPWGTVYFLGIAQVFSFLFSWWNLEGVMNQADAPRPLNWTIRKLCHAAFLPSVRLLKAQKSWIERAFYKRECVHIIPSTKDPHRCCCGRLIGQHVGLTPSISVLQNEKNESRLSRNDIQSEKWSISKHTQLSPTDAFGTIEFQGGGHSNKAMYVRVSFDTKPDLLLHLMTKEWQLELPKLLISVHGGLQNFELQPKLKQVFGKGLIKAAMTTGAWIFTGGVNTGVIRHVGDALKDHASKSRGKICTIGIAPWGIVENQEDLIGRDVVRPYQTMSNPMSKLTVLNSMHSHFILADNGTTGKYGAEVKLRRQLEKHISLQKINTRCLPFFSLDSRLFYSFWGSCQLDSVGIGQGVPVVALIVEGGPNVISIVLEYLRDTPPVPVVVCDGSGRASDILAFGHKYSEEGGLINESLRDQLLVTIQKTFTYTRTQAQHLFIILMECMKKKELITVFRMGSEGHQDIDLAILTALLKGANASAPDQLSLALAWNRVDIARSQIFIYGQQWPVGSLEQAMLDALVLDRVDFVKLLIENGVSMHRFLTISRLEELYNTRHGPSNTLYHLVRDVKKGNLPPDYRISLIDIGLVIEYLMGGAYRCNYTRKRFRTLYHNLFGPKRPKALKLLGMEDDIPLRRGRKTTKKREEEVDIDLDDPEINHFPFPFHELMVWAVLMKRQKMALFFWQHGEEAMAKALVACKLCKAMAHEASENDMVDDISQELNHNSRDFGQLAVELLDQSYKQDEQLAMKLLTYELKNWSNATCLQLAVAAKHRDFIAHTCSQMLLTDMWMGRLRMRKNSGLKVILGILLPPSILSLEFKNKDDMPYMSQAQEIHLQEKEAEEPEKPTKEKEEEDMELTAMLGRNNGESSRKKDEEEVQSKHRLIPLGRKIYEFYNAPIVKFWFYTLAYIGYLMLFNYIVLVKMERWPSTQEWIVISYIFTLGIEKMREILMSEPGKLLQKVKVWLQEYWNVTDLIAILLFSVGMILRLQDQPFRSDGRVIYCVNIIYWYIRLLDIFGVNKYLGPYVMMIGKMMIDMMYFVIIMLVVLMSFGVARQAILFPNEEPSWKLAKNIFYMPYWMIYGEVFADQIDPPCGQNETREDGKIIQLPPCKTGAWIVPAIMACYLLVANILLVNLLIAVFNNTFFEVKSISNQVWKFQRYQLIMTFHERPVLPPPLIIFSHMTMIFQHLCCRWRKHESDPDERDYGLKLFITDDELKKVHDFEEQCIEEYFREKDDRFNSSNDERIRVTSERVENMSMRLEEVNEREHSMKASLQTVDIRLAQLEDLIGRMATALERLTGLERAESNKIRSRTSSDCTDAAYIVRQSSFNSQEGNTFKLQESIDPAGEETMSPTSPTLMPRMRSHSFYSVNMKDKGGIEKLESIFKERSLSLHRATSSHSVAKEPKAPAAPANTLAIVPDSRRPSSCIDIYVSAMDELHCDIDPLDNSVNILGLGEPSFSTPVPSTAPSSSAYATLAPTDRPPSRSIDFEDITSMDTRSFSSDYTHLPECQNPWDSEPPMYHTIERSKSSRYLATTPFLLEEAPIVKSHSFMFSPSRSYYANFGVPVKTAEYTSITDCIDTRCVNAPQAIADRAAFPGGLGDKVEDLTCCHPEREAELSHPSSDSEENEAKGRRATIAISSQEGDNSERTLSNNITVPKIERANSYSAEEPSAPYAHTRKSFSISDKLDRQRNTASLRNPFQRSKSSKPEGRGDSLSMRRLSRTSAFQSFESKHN
T2 sequence (O94759 whole entry): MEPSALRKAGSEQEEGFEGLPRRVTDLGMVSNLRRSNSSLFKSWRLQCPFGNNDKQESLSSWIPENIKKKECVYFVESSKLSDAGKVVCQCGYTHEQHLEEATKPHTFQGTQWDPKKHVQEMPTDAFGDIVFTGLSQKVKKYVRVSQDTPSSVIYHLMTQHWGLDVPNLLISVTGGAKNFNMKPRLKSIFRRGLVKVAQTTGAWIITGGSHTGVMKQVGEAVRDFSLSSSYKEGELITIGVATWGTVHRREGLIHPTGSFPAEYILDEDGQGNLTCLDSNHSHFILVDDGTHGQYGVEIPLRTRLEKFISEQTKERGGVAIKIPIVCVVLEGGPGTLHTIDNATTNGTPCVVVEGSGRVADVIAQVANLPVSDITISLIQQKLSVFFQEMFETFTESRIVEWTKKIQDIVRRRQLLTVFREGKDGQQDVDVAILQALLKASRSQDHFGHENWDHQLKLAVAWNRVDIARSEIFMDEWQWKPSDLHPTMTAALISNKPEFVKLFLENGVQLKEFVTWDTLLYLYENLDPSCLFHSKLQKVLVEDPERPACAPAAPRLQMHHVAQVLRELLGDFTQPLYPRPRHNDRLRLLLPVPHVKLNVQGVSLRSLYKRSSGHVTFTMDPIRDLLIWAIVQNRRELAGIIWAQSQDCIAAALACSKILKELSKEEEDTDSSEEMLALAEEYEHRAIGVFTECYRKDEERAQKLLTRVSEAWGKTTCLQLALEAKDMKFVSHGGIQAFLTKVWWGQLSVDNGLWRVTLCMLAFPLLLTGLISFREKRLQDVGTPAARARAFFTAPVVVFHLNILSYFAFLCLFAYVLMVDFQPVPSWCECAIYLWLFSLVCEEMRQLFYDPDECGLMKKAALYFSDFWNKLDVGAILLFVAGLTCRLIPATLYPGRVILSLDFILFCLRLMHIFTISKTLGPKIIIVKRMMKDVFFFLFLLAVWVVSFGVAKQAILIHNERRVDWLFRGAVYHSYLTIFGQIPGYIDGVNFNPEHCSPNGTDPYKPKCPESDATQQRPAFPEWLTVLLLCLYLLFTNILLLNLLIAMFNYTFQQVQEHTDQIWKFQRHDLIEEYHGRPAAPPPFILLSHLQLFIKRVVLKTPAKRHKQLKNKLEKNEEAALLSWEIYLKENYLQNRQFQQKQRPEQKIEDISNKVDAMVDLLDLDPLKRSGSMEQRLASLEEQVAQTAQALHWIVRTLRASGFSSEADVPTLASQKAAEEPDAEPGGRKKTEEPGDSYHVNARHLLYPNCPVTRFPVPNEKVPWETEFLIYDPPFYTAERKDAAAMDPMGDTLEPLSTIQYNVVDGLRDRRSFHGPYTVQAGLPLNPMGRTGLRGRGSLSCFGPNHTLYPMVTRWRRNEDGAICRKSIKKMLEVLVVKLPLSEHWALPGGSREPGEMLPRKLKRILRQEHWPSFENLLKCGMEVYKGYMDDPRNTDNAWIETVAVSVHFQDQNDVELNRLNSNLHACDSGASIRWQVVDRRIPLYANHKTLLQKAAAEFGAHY
T1 sequence (O75762 whole entry): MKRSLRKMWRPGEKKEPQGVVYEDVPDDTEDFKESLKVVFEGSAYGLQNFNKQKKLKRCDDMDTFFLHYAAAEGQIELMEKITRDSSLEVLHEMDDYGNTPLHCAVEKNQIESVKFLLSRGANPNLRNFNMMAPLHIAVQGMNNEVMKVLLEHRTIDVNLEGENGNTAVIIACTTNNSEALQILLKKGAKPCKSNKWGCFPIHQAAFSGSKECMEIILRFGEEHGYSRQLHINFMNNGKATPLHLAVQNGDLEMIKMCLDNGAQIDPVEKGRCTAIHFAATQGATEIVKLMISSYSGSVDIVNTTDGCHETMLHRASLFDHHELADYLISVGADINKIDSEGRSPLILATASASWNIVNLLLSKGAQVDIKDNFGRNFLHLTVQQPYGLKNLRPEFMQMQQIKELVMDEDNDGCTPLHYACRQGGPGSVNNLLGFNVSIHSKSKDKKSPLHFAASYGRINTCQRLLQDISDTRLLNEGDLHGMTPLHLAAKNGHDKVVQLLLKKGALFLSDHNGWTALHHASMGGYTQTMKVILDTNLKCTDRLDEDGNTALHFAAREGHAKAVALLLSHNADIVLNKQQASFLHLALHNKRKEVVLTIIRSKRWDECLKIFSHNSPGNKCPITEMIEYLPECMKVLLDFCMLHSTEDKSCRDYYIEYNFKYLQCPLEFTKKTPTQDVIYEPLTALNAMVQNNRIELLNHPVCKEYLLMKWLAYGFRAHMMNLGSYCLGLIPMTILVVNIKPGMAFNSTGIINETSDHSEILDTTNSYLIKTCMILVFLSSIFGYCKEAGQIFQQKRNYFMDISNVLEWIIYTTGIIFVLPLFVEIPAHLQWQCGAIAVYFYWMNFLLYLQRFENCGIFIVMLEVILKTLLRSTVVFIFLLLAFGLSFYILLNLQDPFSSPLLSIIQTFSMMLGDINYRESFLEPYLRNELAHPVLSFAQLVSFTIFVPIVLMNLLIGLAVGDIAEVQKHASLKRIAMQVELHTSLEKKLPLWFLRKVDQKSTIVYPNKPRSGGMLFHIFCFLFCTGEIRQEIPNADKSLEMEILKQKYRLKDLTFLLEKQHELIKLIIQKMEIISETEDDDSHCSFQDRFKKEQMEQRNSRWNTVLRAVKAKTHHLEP

CC(C)(O)c1cnc(N2C[C@@]3(CC[C@@H](F)[C@](C)(Cn4cnc5ccc(C#N)cc54)C3)OC2=O)cn1 (single isomer, unassigned) [Example 5]
Hepatocytes predicted clearance in cyno (Hepatocytes [1]): 1 mL/min/kg | Hepatocytes predicted clearance in human (Hepatocytes [2]): < 0.17 mL/min/kg | EC50 (TRPA1 channels; agonist mode, vs EMAX of mustard oil 600 μM, read-out: EC50 hTRPA1): > 10 µM | IC50 (TRPA1 channels; antagonist mode, activated with mustard oil 80 μM, 0.003-10 μM, read-out: IC50 hTRPA1): > 10 µM | EC50 (TRPM2 channels; agonist mode, vs EMAX of H2O2 333 μM, read-out: EC50 hTRPM2): > 10 µM | IC50 (TRPM2 channels; antagonist mode, activated with 300 μM H2O2, 0.003-10 μM, read-out: IC50 hTRPM2): > 10 µM | EC50 (TRPM3 channels; agonist mode, vs EMAX of pregnenolone 100 μM, read-out: EC50 hTRPM3): > 10 µM | IC50 (TRPM3 channels; antagonist mode, activated with pregnenolone 30 μM, 0.003-10 μM, read-out: IC50 hTRPM3): > 10 µM
